Here are results for 26 molecules from patent publication US7700593B2, “Imidazo- and triazolo-pyridine compounds and methods of use thereof” (Amgen Inc., priority 2006, dated 2010).

In assay [1] the test system is THP1 cells. Description: Lipopolysaccharide-activated THP1 cell TNF production assay. It is filed as cell-based, human. Particulars: LPS-induced TNF-α production in THP1 cells. In a few lines: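 THP1 cells at 1E6/mL were stimulated with LPS (1 μg/mL prepared stock) alongside 3-fold serially diluted compound for 3 h at 37 °C. Secreted TNF-α was quantified by electrochemiluminescence sandwich immunoassay. Percent of DMSO control was fitted to a 4-parameter logistic equation.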

For assay [2], the target named is p38α (Homo sapiens, UniProt Q16539). The assay is described as follows: p38 in-vitro HTRF enzyme assay. Format: biochemical. The following applies: IC50 value ranges. In a few lines: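 Activated recombinant human p38α with ATP and 100 nM GST-ATF2-Avitag, 1 h at RT in Tris pH 7.5/MgCl2 buffer; compound 10-point 3-fold series from about 1 μM final. HTRF 665/620 nm ratio; IC50 from 4-parameter fit, Ki via Cheng-Prusoff with experimental ATP Km.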
p38α, sequence (Q16539 whole entry): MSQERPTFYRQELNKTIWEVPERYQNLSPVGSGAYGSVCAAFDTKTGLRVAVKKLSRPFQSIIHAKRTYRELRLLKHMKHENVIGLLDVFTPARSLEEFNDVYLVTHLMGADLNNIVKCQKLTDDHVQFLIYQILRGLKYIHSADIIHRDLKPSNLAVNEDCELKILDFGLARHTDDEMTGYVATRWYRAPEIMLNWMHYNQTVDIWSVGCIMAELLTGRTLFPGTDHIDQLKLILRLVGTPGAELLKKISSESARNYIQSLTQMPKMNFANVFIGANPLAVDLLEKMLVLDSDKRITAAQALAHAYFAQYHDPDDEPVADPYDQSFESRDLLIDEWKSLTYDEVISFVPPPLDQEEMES
Background: In TR-FRET formats the signal depends on donor and acceptor labels being close together.

Assay [3] deals with monocytes. Description: Lipopolysaccharide-activated monocyte TNF production assay (LPS induced TNF release). It is filed as cell-based, human. The following applies: LPS induced TNF release from monocytes, read-out: LPS induced TNFa. In a few lines: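 Adherent monocytes from human PBMCs were pretreated with compound 60 min, then stimulated with E. coli LPS (30 ng/mL stock added) for 4 h at 37 °C. Supernatant TNF-α measured by sandwich ELISA; concentration giving 50% TNF reduction derived by polynomial fit.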

Read-outs that look alike come from different tables or passages of the source. Bounds are passed on as bounds.

Consider `Cc1ccc(C(=O)NC2CC2)cc1-c1cc(C)n2c(-c3ccccc3Cl)nnc2c1` [Example 6, 3-(3-(2-chlorophenyl)-5-methyl[1,2,4]triazolo[4,3-a]pyridin-7-yl)-N-cyclopropyl-4-methylbenzamide], for which the IC50 is less than 25 nM in assay [1] (Homo sapiens, THP-1); less than 25 nM in assay [2]; 25 to 100 nM in assay [3] (Homo sapiens, Monocyte).
Take `Cc1cc(Cl)c(C(=O)NC2CC2)cc1-c1ccn2c(-c3ccccc3Cl)nnc2c1` [Example 90, 2-chloro-5-(3-(2-chlorophenyl)[1,2,4]triazolo[4,3-a]pyridin-7-yl)-N-cyclopropyl-4-methylbenzamide]: the IC50 in assay [1] (Homo sapiens, THP-1) is 1000 to 5000 nM; in assay [2], 250 to 1000 nM; in assay [3] (Homo sapiens, Monocyte) it was more than 5000 nM.
For `Cc1ccc(C(=O)NC2CC2)cc1-c1ccn2c(-c3ccc(F)cc3C)ncc2c1` [Example 22, N-cyclopropyl-3-(3-(4-fluoro-2-methylphenyl)imidazo[1,5-a]pyridin-7-yl)-4-methylbenzamide], the IC50 in assay [1] (Homo sapiens, THP-1) was 25 to 100 nM; in assay [2], less than 25 nM; in assay [3] (Homo sapiens, Monocyte), 25 to 100 nM.
As to `Cc1ccc(C(=O)NC2CC2)cc1-c1ccn2c(-c3ccccc3C)nnc2c1` [Example 32, N-cyclopropyl-4-methyl-3-(3-(2-methylphenyl)[1,2,4]triazolo[4,3-a]pyridin-7-yl)benzamide], the IC50 in assay [1] (Homo sapiens, THP-1) is 25 to 100 nM; in assay [2] it was less than 25 nM; in assay [3] (Homo sapiens, Monocyte), 100 to 250 nM.
The matching figures for `CNC(=O)c1ccc(C)c(-c2ccn3c(-c4ccccc4Cl)nnc3c2)c1` [Example 40, 3-(3-(2-chlorophenyl)[1,2,4]triazolo[4,3-a]pyridin-7-yl)-N,4-dimethylbenzamide]: 25 to 100 nM, 25 to 100 nM and 100 to 250 nM.
The corresponding values for `Cc1ccc(C(=O)NC2CC2)cc1-c1ccn2c(-c3ocnc3C)nnc2c1` [Example 57, N-cyclopropyl-4-methyl-3-(3-(4-methyl-1,3-oxazol-5-yl)[1,2,4]triazolo[4,3-a]pyridin-7-yl)benzamide] are 250 to 1000 nM, 25 to 100 nM and 250 to 1000 nM.
The matching figures for `Cc1ccc(C(=O)NC2CC2)cc1-c1ccn2c(Nc3ccccc3)nnc2c1` [Example 66, N-cyclopropyl-4-methyl-3-(3-(phenylamino)[1,2,4]triazolo[4,3-a]pyridin-7-yl)benzamide]: 250 to 1000 nM, less than 25 nM and 100 to 250 nM.
Take `Cc1ccc(C(=O)NC2CC2)cc1-c1ccn2c(C3CCOCC3)nnc2c1` [Example 97, N-cyclopropyl-4-methyl-3-(3-(tetrahydro-2H-pyran-4-yl)[1,2,4]triazolo[4,3-a]pyridin-7-yl)benzamide]: the IC50 in assay [1] (Homo sapiens, THP-1) is 25 to 100 nM; in assay [2], less than 25 nM; in assay [3] (Homo sapiens, Monocyte), 100 to 250 nM.
The corresponding values for `Cc1c(F)cc(C(=O)NC2CC2)cc1-c1ccn2c(C(C)(C)C)nnc2c1` [Example 50, N-cyclopropyl-3-(3-(1,1-dimethylethyl)[1,2,4]triazolo[4,3-a]pyridin-7-yl)-5-fluoro-4-methylbenzamide] are less than 25 nM, less than 25 nM and less than 25 nM.
The corresponding values for `Cc1ccc(C(=O)Nc2ccnn2C)cc1-c1ccn2c(-c3cc(F)c(F)cc3Cl)nnc2c1` [Example 49, 3-(3-(2-chloro-4,5-difluorophenyl)[1,2,4]triazolo[4,3-a]pyridin-7-yl)-4-methyl-N-(1-methyl-1H-pyrazol-5-yl)benzamide] are 25 to 100 nM, less than 25 nM and 25 to 100 nM.
In the case of `Cc1ccc(C(=O)NC2CC2)cc1-c1ccn2c(-c3cc(F)ccc3Cl)nnc2c1` [Example 46, 3-(3-(2-chloro-5-fluorophenyl)[1,2,4]triazolo[4,3-a]pyridin-7-yl)-N-cyclopropyl-4-methylbenzamide], the IC50 was less than 25 nM in assay [1] (Homo sapiens, THP-1); less than 25 nM in assay [2]; 25 to 100 nM in assay [3] (Homo sapiens, Monocyte).
For the molecule `Cc1ccc(C(=O)Nc2ccnn2C)cc1-c1ccn2c(-c3ccc(F)cc3C)nnc2c1` [Example 17, 3-(3-(4-fluoro-2-methylphenyl)[1,2,4]triazolo[4,3-a]pyridin-7-yl)-4-methyl-N-(1-methyl-1H-pyrazol-5-yl)benzamide], the IC50 in assay [1] (Homo sapiens, THP-1) was less than 25 nM; in assay [2] it was less than 25 nM; in assay [3] (Homo sapiens, Monocyte), less than 25 nM.
For `Cc1c(F)cc(C(=O)NC2CC2)cc1-c1ccn2c(-c3c(F)cccc3F)nnc2c1` [Example 64, N-cyclopropyl-3-(3-(2,6-difluorophenyl)[1,2,4]triazolo[4,3-a]pyridin-7-yl)-5-fluoro-4-methylbenzamide], the IC50 in assay [1] (Homo sapiens, THP-1) is less than 25 nM; in assay [2] it was less than 25 nM; in assay [3] (Homo sapiens, Monocyte) it was less than 25 nM.
Turning to `Cc1cc(F)c(C(=O)NC2CC2)cc1-c1ccn2c(-c3ccccc3Cl)nnc2c1` [Example 70, 5-(3-(2-chlorophenyl)[1,2,4]triazolo[4,3-a]pyridin-7-yl)-N-cyclopropyl-2-fluoro-4-methylbenzamide], the IC50 in assay [1] (Homo sapiens, THP-1) is 25 to 100 nM; in assay [2], less than 25 nM; in assay [3] (Homo sapiens, Monocyte), 100 to 250 nM.
Consider `Cc1ccc(C(=O)NC2CC2)cc1-c1ccn2c(-c3cc(F)c(F)cc3Cl)nnc2c1` [Example 48, 3-(3-(2-chloro-4,5-difluorophenyl)[1,2,4]triazolo[4,3-a]pyridin-7-yl)-N-cyclopropyl-4-methylbenzamide], for which the IC50 in assay [1] (Homo sapiens, THP-1) was 100 to 250 nM; in assay [2] it was less than 25 nM; in assay [3] (Homo sapiens, Monocyte), 100 to 250 nM.
`Cc1ccc(C(=O)Nc2ccnn2C)cc1-c1ccn2c(-c3cnccc3C(F)(F)F)ncc2c1` [Example 4, 4-methyl-N-(1-methyl-1H-pyrazol-5-yl)-3-(3-(4-(trifluoromethyl)-3-pyridinyl)imidazo[1,5-a]pyridin-7-yl)benzamide]: the IC50 in assay [1] (Homo sapiens, THP-1) was 25 to 100 nM; in assay [2], less than 25 nM; in assay [3] (Homo sapiens, Monocyte) it was 25 to 100 nM.
Regarding `Cc1ccc(C(=O)NC2CC2)cc1-c1ccn2c(-c3ccccc3Cl)nnc2c1` [Example 10, 3-(3-(2-chlorophenyl)[1,2,4]triazolo[4,3-a]pyridin-7-yl)-N-cyclopropyl-4-methylbenzamide], the IC50 in assay [1] (Homo sapiens, THP-1) is less than 25 nM; in assay [2], less than 25 nM; in assay [3] (Homo sapiens, Monocyte) it was 25 to 100 nM.
For `Cc1ccccc1-c1nnc2cc(-c3cc(C(=O)NC4CC4)cc(F)c3C)ccn12` [Example 82, N-cyclopropyl-3-fluoro-4-methyl-5-(3-(2-methylphenyl)[1,2,4]triazolo[4,3-a]pyridin-7-yl)benzamide], the IC50 in assay [1] (Homo sapiens, THP-1) was less than 25 nM; in assay [2], less than 25 nM; in assay [3] (Homo sapiens, Monocyte), less than 25 nM.
Consider `Cc1ccc(C(=O)NC2CC2)cc1-c1ccn2c(-c3ccccc3Cl)nnc2c1C` [Example 78, 3-(3-(2-chlorophenyl)-8-methyl[1,2,4]triazolo[4,3-a]pyridin-7-yl)-N-cyclopropyl-4-methylbenzamide], for which the IC50 was 25 to 100 nM in assay [1] (Homo sapiens, THP-1); 25 to 100 nM in assay [2]; 250 to 1000 nM in assay [3] (Homo sapiens, Monocyte).
As for `Cc1c(F)cc(C(=O)NC2CC2)cc1-c1ccn2c(-c3c(F)cccc3Cl)nnc2c1` [Example 56, 3-(3-(2-chloro-6-fluorophenyl)[1,2,4]triazolo[4,3-a]pyridin-7-yl)-N-cyclopropyl-5-fluoro-4-methylbenzamide], the IC50 is less than 25 nM in assay [1] (Homo sapiens, THP-1); less than 25 nM in assay [2]; less than 25 nM in assay [3] (Homo sapiens, Monocyte).
Regarding `Cc1c(F)cc(C(=O)NC2CC2)cc1-c1ccn2c(-c3ccncc3Cl)nnc2c1` [Example 79, 3-(3-(3-chloro-4-pyridinyl)[1,2,4]triazolo[4,3-a]pyridin-7-yl)-N-cyclopropyl-5-fluoro-4-methylbenzamide], the IC50 in assay [1] (Homo sapiens, THP-1) was less than 25 nM; in assay [2] it was less than 25 nM; in assay [3] (Homo sapiens, Monocyte), 25 to 100 nM.
For the molecule `Cc1c(F)cc(C(=O)Nc2ccnn2C)cc1-c1ccn2c(-c3c(F)cccc3Cl)nnc2c1` [Example 61, 3-(3-(2-chloro-6-fluorophenyl)[1,2,4]triazolo[4,3-a]pyridin-7-yl)-5-fluoro-4-methyl-N-(1-methyl-1H-pyrazol-5-yl)benzamide], the IC50 in assay [1] (Homo sapiens, THP-1) was in the range of 25 to 100 nM; in assay [2] it was 25 to 100 nM; in assay [3] (Homo sapiens, Monocyte) it was 100 to 250 nM.
Consider `Cc1ccc(C(=O)NC2CC2)cc1-c1ccn2c(-c3ccncc3Cl)nnc2c1` [Example 80, 3-(3-(3-chloro-4-pyridinyl)[1,2,4]triazolo[4,3-a]pyridin-7-yl)-N-cyclopropyl-4-methylbenzamide], for which the IC50 in assay [1] (Homo sapiens, THP-1) is less than 25 nM; in assay [2], less than 25 nM; in assay [3] (Homo sapiens, Monocyte) it was 25 to 100 nM.
Turning to `Cc1ccc(C(=O)NC2CC2)cc1-c1ccn2c(C3CC3)nnc2c1` [Example 93, N-cyclopropyl-3-(3-cyclopropyl[1,2,4]triazolo[4,3-a]pyridin-7-yl)-4-methylbenzamide], the IC50 in assay [1] (Homo sapiens, THP-1) was 25 to 100 nM; in assay [2] it was less than 25 nM; in assay [3] (Homo sapiens, Monocyte), 100 to 250 nM.
The corresponding values for `Cc1ccc(C(=O)Nc2ccnn2C)cc1-c1ccn2c(-c3ccc(S(C)(=O)=O)cc3)nnc2c1` [Example 14, 4-methyl-N-(1-methyl-1H-pyrazol-5-yl)-3-(3-(4-(methylsulfonyl)phenyl)[1,2,4]triazolo[4,3-a]pyridin-7-yl)benzamide] are 1000 to 5000 nM, 25 to 100 nM and 1000 to 5000 nM.
As for “4-methyl-3-(3-(4-methyl-1,3-oxazol-5-yl)[1,2,4]triazolo[4,3-a]pyridin-7-yl)-N-(1-methyl-1H-pyrazol-5-yl)benzamide [Example 58]”, the IC50 in assay [1] (read-out: THP-1 cell assay) was 250 to 1000 nM; in assay [2], 25 to 100 nM; in assay [3], 250 to 1000 nM.
